Reference: US7153494B2, “Dibenzoylmethane sunscreen compositions photostabilized with amphiphilic block copolymers” (L'Oreal, priority 2002, dated 2006)

Assay: Photostability of oily Parsol 1789/block copolymer mixture as a thin coat on a glass plate, xenon lamp irradiation, absorption spectrophotometry
Format: physicochemical
Settings: mixture with Tegomer SE-1010; thin coat about 10 microns on glass plate, in presence of oxygen; UV-A 22 J/cm^2, 20 minutes
Experimental: The Parsol® 1789 was dispersed in the Tegomer SE-1010 with heating at 40° C. for 60 minutes. The mixture was allowed to cool to room temperature. The oily mixture was ready for use.
The oily mixture was evaluated in the form of a thin coat of about 10 microns deposited on a glass plate (microscope slide), in the presence of oxygen.
An irradiation was then performed, using an Ostram-Centra Uvimeter equipped with a xenon lamp, under the following conditions: • Energy of the UV-A lamp: 22 J/cm^2 • Irradiation time of the simulator=20 minutes
These conditions correspond to about one hour of solar UV-A sunshine.
The photodegradation was monitored by absorption spectrophotometry. The following results were obtained: • 1) The mixture was able to form a film and the quality of the film was not impaired by the irradiation. • 2) 100% of the Parsol® 1789 was recovered after this exposure.

COc1ccc(C(=O)CC(=O)c2ccc(C(C)(C)C)cc2)cc1 [Parsol® 1789, 4-(tert-butyl)-4′-methoxydibenzoylmethane]
Parsol 1789 recovered after exposure: 100%
